Data published in patent US8946142B2, “Beta-arrestin effectors and compositions and methods of use thereof” (Trevena, Inc., priority 2012, dated 2015).
pEC50: −log10 of the molar value. Where a SMILES comes first, the peptide text is derived from it. [ ]: non-standard residue; d: D form. Ac6c = NC1(C(=O)O)CCCCC1; Sar = CNCC(=O)O

What was measured:
Type in all cases: cell-based
rat AT1aR [1] = molecular target: T1, rat AT1aR (Rattus norvegicus, UniProt P25095); experiment: beta-arrestin2 recruitment assay (PathHunter), rat AT1aR; details: for Emax: 1 h, read-out: Span (relative to hAngII); for pEC50: read-out: EC50; for EC50: read-out: pEC50 (converted)
T1 sequence (P25095 1-359): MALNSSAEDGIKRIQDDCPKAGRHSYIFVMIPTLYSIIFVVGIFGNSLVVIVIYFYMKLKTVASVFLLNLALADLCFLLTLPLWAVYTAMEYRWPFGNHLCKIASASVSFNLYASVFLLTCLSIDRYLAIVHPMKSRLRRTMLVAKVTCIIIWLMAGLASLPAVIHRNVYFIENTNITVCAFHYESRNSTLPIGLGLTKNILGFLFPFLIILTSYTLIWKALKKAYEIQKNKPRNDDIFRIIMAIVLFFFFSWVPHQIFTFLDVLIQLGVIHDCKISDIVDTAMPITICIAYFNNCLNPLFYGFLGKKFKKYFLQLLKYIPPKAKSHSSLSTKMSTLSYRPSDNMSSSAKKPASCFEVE
Protocol: (§1) The proximal event in β-arrestin function mediated by GPCRs is recruitment to receptors following ligand binding and receptor phosphorylation by GRK's. Thus, the measure of β-arrestin recruitment was used to determine ligand efficacy for β-arrestin function.
(§2) B-arrestin-2 recruitment to the human and rat angiotensin 2 type 1 receptor (human AT1R and rat AT1aR, respectively) was measured with the PathHunter™ μl-arrestin assay (DiscoveRx Corporation, Fremont Calif.). Cells, plasmid(s), and detection reagent(s) were purchased from DiscoveRx, and assays were performed per manufacturer's instructions. Human AT1R and rat AT1aR were cloned into the pCMV-ProLink vector, verified by sequencing, and transfected into PathHunter β-arrestin HEK293 cells. Stably transfected clonal cell lines were selected with Hygromycin and G418. These clonal cell lines were used for all experiments.
(§3) For assays, 4,000-8,000 cells were seeded per well in 384-well microplates “HiBase” small-volume plate in volumes of 20 uL and grown overnight in the incubator (37° C., 5% CO2, saturated humidity). Peptides were dissolved in DMSO to a concentration of 10 mM. Peptides were then further diluted in assay buffer (Hank's balanced salt solution with 20 mM HEPES) to add peptide to the cells to reach final concentrations ranging from 100 μM to 1 pM. Cells were then incubated for 60 minutes at 37° C. in 5% CO2, followed by addition of 2 μL of PathHunter Detection Reagent to each well. The microplates were then incubated at room temperature for 60 minutes, and then luminescence was measured using a PHERAstar Plus microplate reader from BMG Labtech. B-arrestin-2 recruitment to receptors was measured as relative luminescence intensity expressed in arbitrary units.

human AT1R [2] = molecular target: T2, human AT1R (Homo sapiens, UniProt P30556); experiment: IP1 accumulation assay (IP1 G-protein assay), human AT1R; details: for Emax: read-out: Span (relative to hAngII); for pEC50: read-out: EC50; for EC50: read-out: pEC50 (converted)
T2 sequence (P30556 1-359): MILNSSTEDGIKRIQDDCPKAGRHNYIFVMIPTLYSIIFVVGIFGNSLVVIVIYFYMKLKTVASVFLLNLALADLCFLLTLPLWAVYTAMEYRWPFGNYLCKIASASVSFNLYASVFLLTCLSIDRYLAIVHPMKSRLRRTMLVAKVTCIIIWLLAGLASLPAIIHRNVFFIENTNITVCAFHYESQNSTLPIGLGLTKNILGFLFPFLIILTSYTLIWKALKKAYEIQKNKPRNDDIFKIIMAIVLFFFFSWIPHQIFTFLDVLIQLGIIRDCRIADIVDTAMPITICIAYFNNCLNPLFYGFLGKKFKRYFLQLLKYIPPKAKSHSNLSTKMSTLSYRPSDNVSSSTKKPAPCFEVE
Protocol: (§4) A secondary measure of G protein coupling efficacy was also performed. IP3 is generated by activation of phospholipase C by Gα-q. IP3 is degraded to IP1, which can be forced to accumulate in cells by blocking degradation with lithium chloride. Thus we measured accumulation of IP1 to determine ligand efficacy for G protein activation.
(§5) IP1 accumulation generated by human and rat angiotensin 2 type 1 receptor (human AT1R and rat AT1aR, respectively) was measured with IP-One Tb kits purchased from Cisbio and used per the manufacturer's instructions. Clonal stably transfected cell lines expressing human AT1TR or rat AT1aR were used for all experiments.
(§6) For assays, 4,000-8,000 cells were seeded per well in 384-well small-volume microplates “HiBase” small-volume plate in volumes of 20 uL and allowed to grow overnight at 37° C. in 5% CO2. Cell growth media was then replaced with stimulation buffer supplied by Cisbio containing 50 mM lithium chloride. […] For agonist detection, peptides were then further diluted in stimulation buffer to add peptide to the cells to reach final concentrations ranging from 100 uM to 1 pM. Following addition of peptides, cells were incubated at 37° C. in 5% CO2 for 30 minutes and then lysed with 4 uL of pre-mixed HTRF IP-One reagents diluted per manufacturer's instructions (Cisbio). Microplates were incubated for 60-90 minutes at room temperature and then time-resolved fluorescence intensities were measured using a PHERAstar Plus microplate reader from BMG Labtech. IP1 accumulation was measured as change in ratio of time-resolved fluorescent intensities measured at 665 nm and 620 nm.

human AT1R [3] = molecular target: T2, human AT1R; experiment: beta-arrestin2 recruitment assay (PathHunter), human AT1R; details: for Emax: 1 h, read-out: Span (relative to hAngII); for pEC50: read-out: EC50; for EC50: read-out: pEC50 (converted)
Protocol: as §1, §2, §3

rat AT1aR [4] = molecular target: T1, rat AT1aR; experiment: IP1 accumulation assay (IP1 G-protein assay), rat AT1aR; details: for Emax: read-out: Span (relative to hAngII); for pEC50: read-out: EC50; for EC50: read-out: pEC50 (converted)
Protocol: as §4, §5, §6

| Compound | Emax (rat AT1aR [1]) [%] | Emax (human AT1R [2]) [%] | Emax (human AT1R [3]) [%] | Emax (rat AT1aR [4]) [%] | pEC50 (rat AT1aR [1]) | EC50 (rat AT1aR [1]) [nM] | pEC50 (human AT1R [2]) | EC50 (human AT1R [2]) [nM] | pEC50 (human AT1R [3]) | EC50 (human AT1R [3]) [nM] | pEC50 (rat AT1aR [4]) | EC50 (rat AT1aR [4]) [nM] |
| --- | --- | --- | --- | --- | --- | --- | --- | --- | --- | --- | --- | --- |
| CNCC(=O)N[C@@H](CCCNC(=N)N)C(=O)N[C@H](C(=O)N[C@@H](Cc1ccc(O)cc1)C(=O)N1CCC[C@H]1C(=O)N[C@@H](Cc1c[nH]cn1)C(=O)N1CCC[C@H]1C(=O)N[C@@H](CC(C)C)C(=O)O)C(C)C [SEQ ID NO: 5, Sar-Arg-Val-Tyr-Pro-His-Pro-Leu] (H-[Sar]RVYPHPL-OH; N-terminus and C-terminus assumed) | < 105 | < 103 | < 101 | < 104 |  |  |  |  |  |  |  |  |
| CNCC(=O)N[C@@H](CCCNC(=N)N)C(=O)N[C@H](C(=O)N[C@@H](Cc1ccc(O)cc1)C(=O)N1CCC[C@H]1C(=O)N[C@@H](Cc1c[nH]cn1)C(=O)N1CCC[C@H]1C(=O)N[C@H](C(=O)O)C(C)C)C(C)C [SEQ ID NO: 6, Sar-Arg-Val-Tyr-Pro-His-Pro-Val] (H-[Sar]RVYPHPV-OH; N-terminus and C-terminus assumed) | < 105 | < 103 | < 101 | < 104 |  |  |  |  |  |  |  |  |
| CNCC(=O)N[C@@H](CCCNC(=N)N)C(=O)N[C@H](C(=O)N[C@@H](Cc1ccc(O)cc1)C(=O)N1CCC[C@H]1C(=O)N[C@@H](Cc1c[nH]cn1)C(=O)N1CCC[C@H]1C(=O)N[C@H](C(=O)O)[C@@H](C)O)C(C)C [SEQ ID NO: 7, Sar-Arg-Val-Tyr-Pro-His-Pro-Thr] (H-[Sar]RVYPHPT-OH) | < 105 |  | < 101 |  | < 8.49 | > 3.16 | < 5.00 | > 0.631 | < 8.49 | > 3.16 | < 9.22 | > 0.631 |
| CNCC(=O)N[C@@H](CCCNC(=N)N)C(=O)N[C@H](C(=O)N[C@@H](Cc1ccc(O)cc1)C(=O)N1CCC[C@H]1C(=O)N[C@@H](Cc1c[nH]cn1)C(=O)N1CCC[C@H]1C(=O)N[C@@H](CCSC)C(=O)O)C(C)C [SEQ ID NO: 9, Sar-Arg-Val-Tyr-Pro-His-Pro-Met] (H-[Sar]RVYPHPM-OH; N-terminus and C-terminus assumed) | < 105 | < 103 | < 101 | < 104 |  |  |  |  |  |  |  |  |
| CNCC(=O)N[C@@H](CCCNC(=N)N)C(=O)N[C@H](C(=O)N[C@@H](Cc1ccc(O)cc1)C(=O)N1CCC[C@H]1C(=O)N[C@@H](Cc1c[nH]cn1)C(=O)N1CCC[C@H]1C(=O)N[C@@H](Cc1ccccc1)C(=O)O)C(C)C [SEQ ID NO: 10, Sar-Arg-Val-Tyr-Pro-His-Pro-Phe] (H-[Sar]RVYPHPF-OH; N-terminus and C-terminus assumed) | > 105 | < 103 | < 101 | < 104 |  |  |  |  |  |  |  |  |
| CC[C@H](C)[C@H](NC(=O)[C@@H]1CCCN1C(=O)[C@H](Cc1c[nH]cn1)NC(=O)C1(NC(=O)[C@H](Cc2ccc(O)cc2)NC(=O)[C@@H](NC(=O)[C@H](CCCNC(=N)N)NC(=O)CNC)C(C)C)CCCCC1)C(=O)O [SEQ ID NO: 11, Sar-Arg-Val-Tyr-cyHex-His-Pro-Ile] (H-[Sar]RVY[Ac6c]HPI-OH) | < 105 | < 103 | < 101 |  | < 8.49 | > 3.16 | < 8.89 | > 0.631 | < 8.49 | > 3.16 | < 9.22 | > 0.631 |
| CNCC(=O)N[C@@H](CCCNC(=N)N)C(=O)N[C@H](C(=O)N[C@@H](Cc1ccc(O)cc1)C(=O)NC1(C(=O)N[C@@H](Cc2c[nH]cn2)C(=O)N2CCC[C@H]2C(=O)N[C@@H](CC(C)C)C(=O)O)CCCCC1)C(C)C [SEQ ID NO: 12, Sar-Arg-Val-Tyr-cyHex-His-Pro-Leu] (H-[Sar]RVY[Ac6c]HPL-OH) | < 105 | < 103 | < 101 | < 104 | < 8.49 | > 3.16 | < 8.89 | > 0.631 | < 8.49 | > 3.16 | < 9.22 | > 0.631 |
| CNCC(=O)N[C@@H](CCCNC(=N)N)C(=O)N[C@H](C(=O)N[C@@H](Cc1ccc(O)cc1)C(=O)NC1(C(=O)N[C@@H](Cc2c[nH]cn2)C(=O)N2CCC[C@H]2C(=O)N[C@H](C(=O)O)C(C)C)CCCCC1)C(C)C [SEQ ID NO: 13, Sar-Arg-Val-Tyr-cyHex-His-Pro-Val] (H-[Sar]RVY[Ac6c]HPV-OH) | < 105 |  | 103 |  | < 8.49 | > 3.16 | < 8.89 | > 0.631 | < 8.49 | > 3.16 | < 9.22 | > 0.631 |
| CNCC(=O)N[C@@H](CCCNC(=N)N)C(=O)N[C@H](C(=O)N[C@@H](Cc1ccc(O)cc1)C(=O)NC1(C(=O)N[C@@H](Cc2c[nH]cn2)C(=O)N2CCC[C@H]2C(=O)N[C@H](C(=O)O)[C@@H](C)O)CCCCC1)C(C)C [SEQ ID NO: 14, Sar-Arg-Val-Tyr-cyHex-His-Pro-Thr] (H-[Sar]RVY[Ac6c]HPT-OH) | < 105 |  | < 101 |  | < 8.49 | > 3.16 | < 8.89 | > 0.631 | < 8.49 | > 3.16 | < 9.22 | > 0.631 |
| CNCC(=O)N[C@@H](CCCNC(=N)N)C(=O)N[C@H](C(=O)N[C@@H](Cc1ccc(O)cc1)C(=O)NC1(C(=O)N[C@@H](Cc2c[nH]cn2)C(=O)N2CCC[C@H]2C(=O)N[C@@H](CO)C(=O)O)CCCCC1)C(C)C [SEQ ID NO: 15, Sar-Arg-Val-Tyr-cyHex-His-Pro-Ser] (H-[Sar]RVY[Ac6c]HPS-OH) | < 105 |  | < 101 | < 104 | < 8.49 | > 3.16 | < 8.89 | > 0.631 | < 8.49 | > 3.16 | < 9.22 | > 0.631 |
| CNCC(=O)N[C@@H](CCCNC(=N)N)C(=O)N[C@H](C(=O)N[C@@H](Cc1ccc(O)cc1)C(=O)NC1(C(=O)N[C@@H](Cc2c[nH]cn2)C(=O)N2CCC[C@H]2C(=O)N[C@@H](CCSC)C(=O)O)CCCCC1)C(C)C [SEQ ID NO: 16, Sar-Arg-Val-Tyr-cyHex-His-Pro-Met] (H-[Sar]RVY[Ac6c]HPM-OH) | < 105 | < 103 | < 101 | < 104 | < 8.49 | > 3.16 | < 8.89 | > 0.631 | < 8.49 | > 3.16 | < 9.22 | > 0.631 |
